The subject of data set [1] is NCX. More on the design: method as in ref 1 (a number printed in a supplementary file, which may have a reference list of its own: not looked up in the article's list). Conditions: Rabbit, cited from earlier work.
The next data set deals with hNCX1 (Homo sapiens, UniProt P32418). In words: Confirmatory fluorescence assay for hNCX1 inhibition (forward mode, HEK293 cells, Charles River). The data set is classed as cell-based. On the procedure:
A confirmatory hNCX1 inhibition assay was performed in Charles River Laboratories, Cleveland. Briefly, HEK293 cells stably expressing hNCX1 were plated in 384‐well black wall, clear‐bottom microtitre plates and the next day loaded with Fluo‐8 for 30 min at 37°C. A plate was inserted into a FLIPR^TETRA, and a baseline was recorded during a preincubation period where test compound or vehicle in a Na^+‐free HB‐PS containing thapsigargin (6 μM) and […] (30 μM) was added to each well for ~5 min. Next, the NCX1 stimulation period was recorded in which Na^+‐containing HB‐PS (with 2‐μM thapsigargin and 10‐μM FCCP) was added. The experiments were performed at room temperature. The kinetic data generated were reduced for each well to maximum relative fluorescence units (RFU) minus minimum RFU after subtracting bias based on the first sample. The mean of the max–min RFU values during the stimulation period for the 3–4 replicates at each concentration on a plate was then plotted versus concentration and fitted to a Hill equation.

The test system of data set [2] is NCX. On the set-up: method as in ref 1 (a number printed in a supplementary file, which may have a reference list of its own: not looked up in the article's list). The following applies: Rat, cited from earlier work.
The next data set in a line: Solubility. The data set is classed as physicochemical. Conditions: pH 7.4 phosphate buffer.
The next data set has as its target T1, human NCX 1.1 (Homo sapiens, UniProt P32418).
T1 construct: expressed in transfected cells
Put plainly: Fluorescence screening assay for hNCX 1.1 inhibition (reverse mode, Sf9 cells). The data set is classed as cell-based. The following applies: Sf9 cells expressing human NCX1.1, reverse mode, fluorescence; n=3 assays. On the procedure: Spodoptera frugiperda (Sf9; RRID:CVCL_0549) cells are widely used for the transient and stable expression of recombinant proteins. Here, Sf9 cells were stably transfected with human NCX 1.1 and maintained in spinner flasks with insect cell culture medium (TNM‐FH), supplemented with 10% FBS, antibiotic–antimycotic solution, and 50 μg·ml^−1 of blasticidin at 28°C in a non‐humidified, CO2‐free atmosphere. The Sf9 cell suspension was subcultured three times a week.
NCX reverse mode activity was stimulated via a 50% dilution of the extracellular Na^+ level using the internal pipettor of FLEXstation, a fluorescence imaging plate reader (Molecular Devices, USA), while simultaneously monitoring intracellular calcium levels. After dilution, the concentration of other ions remained the same, but Na^+ concentration was diluted to the half of original concentration of 172 to 86 mM. For Sf9 insect cells, normal extracellular Na^+ ion concentration is 172 mM. Typically, 50 μl of a solution containing 150,000–200,000 Sf9–NCX cells was loaded onto each well of a 96‐well plate. Cells were preincubated with the intracellular calcium dye Fluo‐4 and Fluo‐6, and the concentrations of the test compound (three replicates) were determined for about 1 h at room temperature before experimentation. The extracellular solution contained (in mM) 172 NaCl, 10 HEPES, 1 CaCl2, 1.2 MgCl2, 0.33 NaH2PO4, 5 glucose, and 5 probenecid. The pH was adjusted to 7.4 with NaOH. The extracellular Na^+ was diluted by the addition of a Na^+‐free extracellular solution (containing in mM: 147 N‐methyl‐D‐glucamine (NMDG), 10 HEPES, 1 CaCl2, 1.2 MgCl2, 0.33 NaH2PO4, and 5 glucose with the pH adjusted by HCl to 7.4)‐induced robust and reproducible elevation of intracellular calcium. The osmolarity of both solutions was adjusted to 340–355 mOsm in order to match the Sf9 cell media osmolarity. In each plate, the IC50 determination for each test compound was based on relative fluorescence changes in comparison with control and 5‐mM nickel acetate‐induced NCX inhibition.

A further data set addresses hERG (Homo sapiens, UniProt Q12809). Put plainly: hERG IC50 of Table 1 / Table S2 (method not assigned). The data set is classed as cell-based. The following applies: human; n=4 assays. For orientation: hERG is a cardiac potassium channel; its block is linked to QT prolongation.
The target of the next data set is T2, MAO B (Homo sapiens, UniProt P27338).
T2 sequence (P27338 1-520): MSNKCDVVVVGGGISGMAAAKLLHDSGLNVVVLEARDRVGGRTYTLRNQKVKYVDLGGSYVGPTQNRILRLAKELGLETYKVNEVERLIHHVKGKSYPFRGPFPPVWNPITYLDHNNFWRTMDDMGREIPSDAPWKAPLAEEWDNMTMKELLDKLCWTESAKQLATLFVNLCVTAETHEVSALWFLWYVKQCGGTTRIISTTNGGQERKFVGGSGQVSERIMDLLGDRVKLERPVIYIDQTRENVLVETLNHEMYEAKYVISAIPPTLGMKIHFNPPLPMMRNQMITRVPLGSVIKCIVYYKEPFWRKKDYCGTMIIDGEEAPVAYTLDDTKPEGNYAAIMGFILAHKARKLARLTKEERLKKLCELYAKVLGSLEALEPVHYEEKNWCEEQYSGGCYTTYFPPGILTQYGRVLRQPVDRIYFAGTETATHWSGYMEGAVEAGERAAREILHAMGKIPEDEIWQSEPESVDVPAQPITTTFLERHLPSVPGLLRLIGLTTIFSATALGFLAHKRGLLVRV
In words: MAO B inhibition (Table S2). The data set is classed as biochemical. The following applies: 10 μM.

Data set [3] relates to NCX. On the set-up: method as in ref 4 (a number printed in a supplementary file, which may have a reference list of its own: not looked up in the article's list). Conditions: CCL39 fibroblast, cited from earlier work.
A further data set deals with T3, MAO A (Homo sapiens, UniProt P21397).
T3 sequence (P21397 1-527): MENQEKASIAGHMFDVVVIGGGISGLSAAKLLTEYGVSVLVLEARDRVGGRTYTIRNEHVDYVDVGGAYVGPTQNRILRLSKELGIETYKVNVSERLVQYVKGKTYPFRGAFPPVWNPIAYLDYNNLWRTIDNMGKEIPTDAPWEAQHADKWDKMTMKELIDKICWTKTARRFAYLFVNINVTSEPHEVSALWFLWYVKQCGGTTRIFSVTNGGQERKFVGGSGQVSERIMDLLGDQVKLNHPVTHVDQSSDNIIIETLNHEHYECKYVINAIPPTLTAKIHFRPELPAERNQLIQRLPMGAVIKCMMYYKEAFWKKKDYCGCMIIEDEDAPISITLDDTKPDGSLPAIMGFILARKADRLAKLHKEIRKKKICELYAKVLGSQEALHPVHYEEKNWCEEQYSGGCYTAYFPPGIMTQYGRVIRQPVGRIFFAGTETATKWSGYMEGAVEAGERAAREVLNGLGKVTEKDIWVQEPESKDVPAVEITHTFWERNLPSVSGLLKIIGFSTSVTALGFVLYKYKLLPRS
In words: MAO A inhibition (Table S2). The data set is classed as biochemical. The following applies: 10 μM.

The next data set relates to L-Type Ca2+ Channel. Conditions: Table S2; cited from earlier work.
In data set [4] the test system is NCX. On the set-up: method as in ref 9 (a number printed in a supplementary file, which may have a reference list of its own: not looked up in the article's list). The following applies: SH-SY5Y neuron, cited from earlier work.
Data set [5] has as its system human ventricular trabeculae. Conditions: 1 or 2 Hz; ORM‐11372 any tested concentration; dofetilide 0.1 μM (positive control).

Values after ≈ are worked out from the molar mass of the structure shown. Read-outs that look alike come from different tables or passages of the source.

As a reminder, the IC50 is the concentration that gives 50% inhibition. One may read the inhibition as the change of the read-out against control, counted positive when it falls. Low readings indicate a weak effect, high ones a strong effect. As usually defined, the solubility is the dissolved amount per volume that the medium holds.

hERG, sequence (Q12809 whole entry): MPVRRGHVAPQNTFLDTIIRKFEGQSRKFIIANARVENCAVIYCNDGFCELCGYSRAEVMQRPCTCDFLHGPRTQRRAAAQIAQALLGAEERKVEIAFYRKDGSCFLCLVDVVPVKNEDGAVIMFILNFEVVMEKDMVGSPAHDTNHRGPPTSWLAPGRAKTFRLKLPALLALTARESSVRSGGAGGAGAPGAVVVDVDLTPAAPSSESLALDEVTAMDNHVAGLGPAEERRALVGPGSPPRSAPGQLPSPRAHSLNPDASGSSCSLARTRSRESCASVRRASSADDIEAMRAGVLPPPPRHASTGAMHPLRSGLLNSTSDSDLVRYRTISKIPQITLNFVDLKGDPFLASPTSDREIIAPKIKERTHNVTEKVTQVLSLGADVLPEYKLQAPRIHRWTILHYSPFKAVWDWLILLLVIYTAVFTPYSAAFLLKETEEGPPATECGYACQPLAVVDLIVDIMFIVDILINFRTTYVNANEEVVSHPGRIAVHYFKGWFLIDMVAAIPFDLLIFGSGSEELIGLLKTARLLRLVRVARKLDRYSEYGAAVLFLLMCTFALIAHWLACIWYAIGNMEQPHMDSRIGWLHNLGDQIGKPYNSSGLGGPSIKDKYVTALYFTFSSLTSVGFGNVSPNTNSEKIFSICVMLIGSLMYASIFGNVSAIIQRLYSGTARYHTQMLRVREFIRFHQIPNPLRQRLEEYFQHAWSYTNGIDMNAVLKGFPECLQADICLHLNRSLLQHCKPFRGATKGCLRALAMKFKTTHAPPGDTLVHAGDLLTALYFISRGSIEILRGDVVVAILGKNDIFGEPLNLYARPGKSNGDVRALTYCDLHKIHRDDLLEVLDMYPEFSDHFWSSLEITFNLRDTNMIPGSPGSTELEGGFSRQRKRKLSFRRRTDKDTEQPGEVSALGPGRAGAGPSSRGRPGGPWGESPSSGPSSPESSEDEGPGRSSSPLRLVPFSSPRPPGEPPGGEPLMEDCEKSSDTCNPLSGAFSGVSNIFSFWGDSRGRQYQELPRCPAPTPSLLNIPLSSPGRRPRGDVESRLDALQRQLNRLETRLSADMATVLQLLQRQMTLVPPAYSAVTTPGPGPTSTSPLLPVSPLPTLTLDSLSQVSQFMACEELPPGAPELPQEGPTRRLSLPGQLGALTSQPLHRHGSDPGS

As to `N=C(N)SCCc1ccc(OCc2ccc([N+](=O)[O-])cc2)cc1` [KB-R7943], the IC50 is 243 nM in the data set with NCX [1] (read-out: IC50 NCX forward); 309 nM in the data set on NCX [1] (read-out: IC50 NCX reverse); 3590 nM on hNCX1 (HEK293, forward mode, Table S2, read-out: hNCX1-HEK IC50); 120 nM in the data set with NCX [2] (read-out: IC50 NCX forward); 61 nM in the data set with NCX [2] (read-out: IC50 NCX reverse); 3790 nM at human NCX 1.1. Moreover, the Solubility class entry in “Solubility” is given as “Moderate (moderate solubility between 10-100 µg/ml)”.
`CCOC(=O)C1CSC(Cc2ccc(OCc3ccc([N+](=O)[O-])cc3)cc2)N1` (stereo not shown) [SN‐6, 2‐[4‐(4‐nitrobenzyloxy)benzyl]thiazolidine‐4‐carboxylic acid ethyl ester]: the IC50 is 102000 nM against hERG; above 100000 nM on hNCX1 (HEK293, text, read-out: IC50 hNCX1 (forward mode)); above 30000 nM in the data set on NCX [3] (read-out: IC50 NCX forward); 29000 nM in the data set with NCX [3] (read-out: IC50 NCX reverse); 16000 nM against human NCX 1.1. For the same compound, the results for the inhibition at 10 µM against MAO B and against MAO A were 80% and 38%, respectively. Also, the solubility in the data set “Solubility” (phosphate buffer, pH 7.4, aqueous buffer, read-out: Solubility class) was 10 to 100 µg/mL (≈ 24.8 to 248 µM).
Consider `Nc1cccc(CNC(=O)c2ccc(Oc3ccc(OCc4cccc(F)c4)cc3)nc2)c1` [YM-244769], for which the IC50 in the data set with L-Type Ca2+ Channel is above 3000 nM; with NCX [4] (read-out: IC50 NCX forward), 68 nM; in the data set with NCX [4] (read-out: IC50 NCX reverse) it was 96 nM.
Take `CN(CCOc1ccc(NS(C)(=O)=O)cc1)CCc1ccc(NS(C)(=O)=O)cc1` [dofetilide, reference compound]: the “STV and triangulation (pro‐arrhythmia markers)” value in data set [5] is reported as “increased”.

Source of the values: article PMC7707092, “Discovery and characterization of ORM‐11372, a novel inhibitor of the sodium‐calcium exchanger with positive inotropic activity” (British Journal of Pharmacology, 2020).
